Data from ChEMBL document CHEMBL1201862, “PubChem BioAssay data set” (2004).
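How tested: cells in 96-well plates exposed to compound for 48 hours at five concentrations. The concentration for 50% growth inhibition is given as GI50.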 Activity calls are given as the source filed them. No stated cut-off is given here; in the data, active = GI50 up to about 1.1 µM and inactive = higher.

What was measured:
Assay in all cases: NCI-60 cell line screen, 48 h
[1] = system: 786-0
[2] = system: A498
[3] = system: A549
[4] = system: ACHN
[5] = system: BT-549
[6] = system: CAKI-1
[7] = system: COLO 205
[8] = system: DU-145
[9] = system: EKVX
[10] = system: HCC 2998
[11] = system: HCT-116
[12] = system: HCT-15
[13] = system: HL-60
[14] = system: HOP-62
[15] = system: HOP-92
[16] = system: HT-29
[17] = system: Hs-578T
[18] = system: IGROV-1
[19] = system: K562
[20] = system: KM12
[21] = system: LOX IMVI
[22] = system: M14
[23] = system: MCF7
[24] = system: MDA-MB-231
[25] = system: MDA-MB-435
[26] = system: MDA-N
[27] = system: MOLT-4
[28] = system: Malme-3M
[29] = system: NCI-H226
[30] = system: NCI-H23
[31] = system: NCI-H460
[32] = system: NCI-H522
[33] = system: NCI/ADR-RES
[34] = system: OVCAR-4
[35] = system: OVCAR-5
[36] = system: OVCAR-8
[37] = system: PC-3
[38] = system: RPMI-8226
[39] = system: RXF 393
[40] = system: SF-268
[41] = system: SF-295
[42] = system: SF-539
[43] = system: SK-MEL-28
[44] = system: SK-MEL-2
[45] = system: SK-MEL-5
[46] = system: SK-OV-3
[47] = system: SN12C
[48] = system: SNB-19
[49] = system: SNB-75
[50] = system: SR
[51] = system: SW-620
[52] = system: T47D
[53] = system: TK-10
[54] = system: U-251
[55] = system: UACC-257
[56] = system: UACC-62
[57] = system: UO-31
[58] = system: OVCAR-3

Measured: GI50

CCN(CC)C(=S)SNc1ccc(S(N)(=O)=O)cc1
active: [13] 0.064 µM | [23] 0.0383 µM | [27] 0.789 µM | [32] 0.0755 µM
> 77.4 µM: [12]
inactive: [1] 29.9 µM | [2] > 100 µM | [3] 74.6 µM | [4] 45.1 µM | [5] 67.8 µM | [6] 36.8 µM | [7] 68.7 µM | [8] > 92.9 µM | [9] > 100 µM | [10] > 100 µM | [11] 47.3 µM | [14] 69.8 µM | [15] > 56.2 µM | [16] 24.6 µM | [17] > 100 µM | [18] 2.11 µM | [19] > 100 µM | [20] > 71.6 µM | [21] 38.9 µM | [22] 24.5 µM | [24] 60.5 µM | [25] > 57.7 µM | [26] 69.3 µM | [28] 42.1 µM | [29] > 100 µM | [30] > 100 µM | [31] 38.7 µM | [33] > 83.6 µM | [34] > 83 µM | [35] 28.4 µM | [36] 23.3 µM | [37] 47.8 µM | [38] 20.2 µM | [39] 44.4 µM | [40] > 75.7 µM | [41] > 66.5 µM | [42] > 76.6 µM | [43] 33.4 µM | [44] > 63.1 µM | [45] 30.5 µM | [46] > 100 µM | [47] 68.1 µM | [48] > 83.4 µM | [49] > 72.9 µM | [50] 33.2 µM | [51] 13.7 µM | [52] 91.6 µM | [53] > 100 µM | [54] 50.4 µM | [55] > 100 µM | [56] > 100 µM | [57] 33.2 µM

O=C(/C=C/c1ccccc1)Oc1cccc(Br)c1
18.2 µM: [12]
inactive: [1] > 100 µM | [2] 61.8 µM | [3] 69.8 µM | [4] > 100 µM | [5] > 100 µM | [6] 48.6 µM | [7] 64.1 µM | [8] 89.9 µM | [9] 48.3 µM | [10] 35.7 µM | [11] 25.6 µM | [13] 18.1 µM | [14] > 100 µM | [15] 91 µM | [16] 30.5 µM | [17] 16.6 µM | [18] 17.7 µM | [20] 31.8 µM | [21] 29.7 µM | [22] 78.7 µM | [23] 20.5 µM | [24] > 100 µM | [25] > 100 µM | [26] 96.6 µM | [27] 11.6 µM | [29] > 100 µM | [30] > 100 µM | [31] > 100 µM | [32] 5.68 µM | [33] 60.1 µM | [58] 78.2 µM | [34] 93.8 µM | [35] > 100 µM | [36] 60.4 µM | [37] 93.1 µM | [38] 14.1 µM | [39] 56.8 µM | [40] 24.3 µM | [41] 24.4 µM | [42] 39.9 µM | [43] > 100 µM | [44] > 100 µM | [45] 55.3 µM | [46] > 100 µM | [47] > 100 µM | [48] 31.7 µM | [49] 45.3 µM | [50] 23.4 µM | [51] 44.2 µM | [52] 53.3 µM | [53] > 100 µM | [54] 29.5 µM | [55] > 100 µM | [56] 74 µM | [57] 52.8 µM
